Publication PMC7525093, “Bis-Quinolinium Cyclophane Blockers of SK Potassium Channels Are Antagonists of M3 Muscarinic Acetylcholine Receptors” (Frontiers in Pharmacology, 2020)
Structures can show the parent of a compound that is named as a salt. Where two headings read alike, the source gives them in different places. Ends that are not written are not given here.

How the values were obtained:
[1] = test system: mouse trachea; test: Isometric tracheal tension measurement (organ bath); conditions: for IC50: cumulative concentrations, Hill function, read-out: IC50, relaxation of carbachol-precontracted trachea; for Relaxation response of trachea: TrpM channel blocker
Experimental: Mice used in these studies were BALB/C mice from Jackson Labs. All animal procedures were reviewed and approved by the University of Texas Health Science Center at San Antonio Institutional Animal Care and Use Committee. For tracheal constriction studies, animals were deeply anesthetized with isoflurane and then sacrificed by cervical dislocation. Isometric tracheal contraction measurements were performed as previously described ([Semenov et al., 2012]). Trachea were removed and surrounding tissues dissected in ice-cold physiologic saline solution (PSS) consisting of 119 mM NaCl, 4.7 mM KCl, 2.0 mM CaCl2, 1.0 mM KH2PO4, 1.17 mM MgSO4, 18 mM NaHCO3, 0.026 mM EDTA, 11 mM glucose, and 12.5 mM sucrose. Trachea were cut below the pharynx and above the primary bronchus bifurcation. Two metal wires, attached to a force transducer and micrometer (Radnoti, LLC), were threaded into the lumen of the trachea. Trachea were placed into an oxygenated organ bath (95% O2, 5% CO2), at 37°C, pH 7.35 (after bubbling with 95% O2–5% CO2). Tracheal resting tension was readjusted to 1 gram over 1 h and then challenged with 67 mM potassium PSS with NaCl adjusted to 56.7 mM to maintain proper osmolarity (KPS). Trachea were challenged two or more times until reproducible contractile responses were achieved. All subsequent experimental drug responses were normalized to the KPS response. Bladder measurements were conducted in a similar manner as trachea with identical solutions. The bladder was excised and formed into a ring by cutting anterior and posterior portions before mounting on metal wires for force measurements. For the aorta preparation, the ascending thoracic aorta was excised and cut into 2–3 mm sections before mounting on wires for force measurements.

[2] = molecular target: T1, human M3 muscarinic acetylcholine receptor (Homo sapiens, UniProt P20309); test: R-CEPIAer ER calcium assay of Gq-coupled receptor activation, M3-transfected CHO-K1 cells; assay type: cell-based; conditions: for Hill slope of inhibition curve, M3 receptor: Hill equation fit
T1 construct: host or cells: CHO-K1 cells, stably transfected
Experimental: The binding of antagonists to Gq-coupled receptors was determined by measuring IP3-mediated calcium depletion from the endoplasmic reticulum (ER). This was accomplished using CHO-K1 cells stably transfected with human M3 muscarinic acetylcholine receptor (CEM3000000, cDNA Resource Center, Bloomsburg University) and R-CEPIAer, a low affinity ER-targeted calcium indicator fluorescent protein ([Suzuki et al., 2014]). R-CEPIAer reporting of ER calcium concentration was assessed using 564 nm excitation light (>590 long-pass emission) at 20 second intervals on a Nikon swept-field confocal microscope using slit-scan mode, 2x2 Binning, and 100 millisecond frames. F/Fmax was fluorescence intensity normalized to maximal fluorescence intensity during the experiment. The response of cells to Gq-coupled receptor agonist were measured as the change in F/Fmax (ΔF/Fmax) from preagonist value to fluorescence minimum during agonist application (that occurs by IP3-mediated ER calcium depletion). […] Perfusion of each agonist application was for 2 min, while the antagonist overlapped and preceded the second agonist application by 3 min. […] IC50 was calculated by assaying fractional inhibition using a dose-response of antagonist concentrations (i.e. Figure 1D ). For assays of other receptors such as the M1 and M5 muscarinic receptors, H1 histamine and P2Y1 purinergic receptors, these receptors were transiently co-transfected with the pCMV R-CEPIAer plasmid (a gift from Masamitsu Iino (Addgene plasmid # 58216; http://n2t.net/addgene:58216; RRID : Addgene_58216)) into CHO cells using polyethylenimine [according to previous methods ([Longo et al., 2013])]. IC50 and EC50 values were estimated by fitting the dose-response relationship to a Hill equation.
To obtain a pKB using a Schild analysis ([Arunlakshana and Schild, 1959]), the acetylcholine EC50 was measured in the absence of UCL1684 and EC50′ measured in the presence of increasing concentrations of UCL1684. These values were used to calculate a dose ratio (DR = EC50′/EC50) for each UCL1684 concentration. The log(DR − 1) was plotted vs. log UCL1684 concentrations and fit to a linear equation where the theoretical X-intercept was used to estimate a pKB.

[3] = test system: SK potassium channels; conditions: cited from earlier work
[4] = test system: CNG2; parameters: method as in Rosenbaum et al., 2004; conditions: ref Rosenbaum et al., 2004; read-out: IC50, block of CNG2 channels; cited from earlier work
[5] = test system: CNG1; parameters: method as in Rosenbaum et al., 2004; conditions: ref Rosenbaum et al., 2004; read-out: IC50, block of CNG1 channels; cited from earlier work
[6] = test system: mouse; parameters: method as in Gamboa-Vujicic et al., 1993; conditions: ref Gamboa-Vujicic et al., 1993, cited from earlier work
[7] = 5 μM antagonist, 0.5 μM carbachol, 0 = none, 1 = complete inhibition

T1 sequence (P20309 whole entry): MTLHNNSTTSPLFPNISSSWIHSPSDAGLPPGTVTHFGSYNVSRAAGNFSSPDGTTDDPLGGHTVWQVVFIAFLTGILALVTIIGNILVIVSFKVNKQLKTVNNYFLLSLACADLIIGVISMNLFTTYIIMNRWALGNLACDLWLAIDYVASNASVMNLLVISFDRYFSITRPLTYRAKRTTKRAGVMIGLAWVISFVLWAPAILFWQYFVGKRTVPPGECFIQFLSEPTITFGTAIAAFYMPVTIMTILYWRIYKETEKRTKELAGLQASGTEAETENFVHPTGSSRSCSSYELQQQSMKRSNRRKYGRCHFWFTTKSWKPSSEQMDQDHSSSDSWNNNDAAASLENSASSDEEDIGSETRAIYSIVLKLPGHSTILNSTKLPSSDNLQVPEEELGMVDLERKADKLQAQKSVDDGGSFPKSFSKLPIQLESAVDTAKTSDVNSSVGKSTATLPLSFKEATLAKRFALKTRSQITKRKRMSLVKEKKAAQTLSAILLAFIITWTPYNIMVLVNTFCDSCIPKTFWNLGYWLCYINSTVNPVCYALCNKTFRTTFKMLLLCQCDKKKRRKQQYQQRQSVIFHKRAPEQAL

Cl.c1ccc2c(c1)CCC[C@H]2Nc1nc2ccccc2[nH]1 [NS8593, N-[(1R)-1,2,3,4-Tetrahydro-1-naphthalenyl]-1H-benzimidazol-2-amine hydrochloride]
IC50 ([1]; 0.5 μM carbachol): 31500 ± 2000 nM | Relaxation of precontracted trachea ([1]; 76.8 μM (highest concentration), 0.5 μM carbachol): complete relaxation | IC50 ([1]; Mus musculus, 0.5 μM carbachol): 31000 nM | IC50 [2]: 83000 nM | Hill slope of inhibition curve, M3 receptor ([2]; 0.5 μM carbachol): 1.7 ± 0.35 | Effect on M3 carbachol response ([2]; 10 μM antagonist, 0.5 μM carbachol): undetectable | Fractional inhibition of second carbachol response ([2]; 100 μM antagonist, 0.5 μM carbachol): 0.60 ± 0.03

c1ccc2c(c1)c1cc[n+]2CCCCC[n+]2ccc(c3ccccc32)NCCCCCN1 [UCL 1848, 8,14-Diaza-1,7(1,4)-diquinolinacyclotetradecaphane trifluoroacetate salt]
IC50 ([3]; effects on SK-dependent fast-afterhyperpolarizing currents, ref Campos Rosa et al., 1996, Chen et al., 2000, Blank et al., 2004, read-out: IC50, SK potassium channels): 2 nM | IC50 ([3]; ref Chen et al., 2000, read-out: IC50, block of SK channels): 2.7 nM | IC50 [2]: 1000 nM | Hill slope of inhibition curve, M3 receptor ([2]; 0.5 μM carbachol): 1.47 ± 0.46 | Fractional inhibition of second carbachol response [2, 7]: 0.98 ± 0.01

CCCCCCCCCCCCC/C=C/[C@@H](O)[C@@H](N)CO [d-erthyro-sphingosine]
Relaxation response of trachea ([1]; 8.1 μM): 14.9 ± 6.0

Cc1cc(=N)c2ccccc2n1CCCCCCCCCCn1c(C)cc(=N)c2ccccc21.Cl.Cl [dequalinium chloride, 1-[10-(4-imino-2-methyl-1,4-dihydroquinolin-1-yl)decyl]-2-methyl-1,4-dihydroquinolin-4-imine dihydrochloride]
IC50 ([3]; ref Castle et al., 1993, Dunn, 1994, read-out: IC50, block of SK potassium channels): 1500 nM | IC50 [4]: 2400 nM | IC50 [5]: 190 nM | IC50 [2]: 270 nM | Hill slope of inhibition curve, M3 receptor ([2]; 0.5 μM carbachol): 0.90 ± 0.29 | Fractional inhibition of second carbachol response [2, 7]: 0.99 ± 0.003

Cc1cc(N)c2ccccc2[n+]1CCCCCCCCCC[n+]1c(C)cc(N)c2ccccc21.[Cl-].[Cl-] [dequalinium chloride, 1-[10-(4-imino-2-methyl-1,4-dihydroquinolin-1-yl)decyl]-2-methyl-1,4-dihydroquinolin-4-imine dihydrochloride]
LD50 ([6]; intraperitoneal administration): 18.3 mg/kg | LD50 ([6]; oral administration): 300 mg/kg

CC(Cc1ccc(O)c(O)c1)C(C)Cc1ccc(O)c(O)c1 (stereo not drawn) [nordihydroguaiaretic acid]
Relaxation response of trachea ([1]; 25 μM): 12.4 ± 8.5

Apamin: peptide blocker of SK channels (CNCKAPETALCARRCQQH; not fully specified (C-terminus, bridges); cysteine pairing not given here; UniProt P01500 28-45, looked up)
Relaxation of ASM contractions ([1]; 100 nM, 0.5 μM carbachol): did not relax ASM contractions | Relaxation response of trachea, single dose ([1]; 100 nM, 0.5 μM carbachol): −15 ± 7
